Measurements published in PubChem BioAssay (NCI).
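The compound was tested at five concentrations on cells cultured in 96-well plates, with a 48-hour exposure period. TGI: total growth inhibition.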

How the values were obtained:
Experiment in all cases: inhibition of tumour cell growth, NCI panel, 48 h
HCC-2998 colon = system: HCC-2998 colon
UACC-257 melanoma = system: UACC-257 melanoma
UACC-62 melanoma = system: UACC-62 melanoma
MOLT-4 leukemia = system: MOLT-4 leukemia
UO-31 renal = system: UO-31 renal
HCT-15 colon = system: HCT-15 colon
RXF 393 renal = system: RXF 393 renal
KM12 colon = system: KM12 colon
DU-145 prostate = system: DU-145 prostate

Row | SMILES | TGI (HCC-2998 colon) | TGI (UACC-257 melanoma) | TGI (UACC-62 melanoma) | TGI (MOLT-4 leukemia) | TGI (UO-31 renal) | TGI (HCT-15 colon) | TGI (RXF 393 renal) | TGI (KM12 colon) | TGI (DU-145 prostate)
1 | C/C(=N\N=C(N)N)c1c(C(=O)OCCCCCCOC(=O)c2nc3sccn3c2/C(C)=N/N=C(N)N)nc2sccn12 | > 100 µM | > 100 µM | > 100 µM | > 100 µM | > 100 µM | > 100 µM | > 100 µM | > 100 µM | –
2 | O=C(Cc1nc2ccc(C(=O)c3ccccc3)cc2[nH]c1=O)C(=O)Nc1ccccc1[N+](=O)[O-] | > 100 µM | > 100 µM | > 100 µM | – | > 100 µM | > 100 µM | > 100 µM | > 100 µM | –
3 | C=CCc1c(O)c2ccccc2[nH]c1=O | > 100 µM | > 100 µM | – | > 100 µM | > 100 µM | > 100 µM | – | > 100 µM | > 100 µM
4 | O=C1c2cc3c(cc2CC12Cc1cc4c(cc1C2)CCC4)CCC3 | > 100 µM | > 100 µM | – | > 100 µM | > 100 µM | > 100 µM | > 100 µM | > 100 µM | > 100 µM
5 | CCCCCCCCCCCCCCCCOCC(CC(F)(F)P(=O)(O)O)OC(C)=O (stereo not given) | > 50 µM | > 50 µM | > 50 µM | > 50 µM | > 50 µM | > 50 µM | – | > 50 µM | > 50 µM
6 | CCOC(=O)c1c2c(n(C)c1-c1ccccc1)C(=O)C(C)=CC2=O | – | 7.03 µM | 23.9 µM | 9.96 µM | 26.6 µM | 17.7 µM | 23.6 µM | 22.5 µM | 35.2 µM
7 | COC(=O)Cc1c(C2=Nc3ccccc3C2(O)CC(=O)OC)[nH]c2ccccc12 (stereo not given) | – | > 100 µM | > 100 µM | 71.2 µM | > 100 µM | > 100 µM | > 100 µM | > 100 µM | > 100 µM
8 | COc1cc(S(=O)(=O)Nc2nc(-c3ccc(N4C(=O)/C(=C/c5ccccc5)N=C4c4ccccc4)cc3)cs2)ccc1Cl | – | > 100 µM | 50.8 µM | > 100 µM | > 100 µM | > 100 µM | 91.7 µM | > 100 µM | > 100 µM
9 | Oc1ccc(-c2c3c(nc4c2CCc2ccc(Br)cc2-4)-c2cc(Br)ccc2CC3)cc1 | 40.1 µM | 69.4 µM | 44.2 µM | – | 38.4 µM | 35.5 µM | – | 42.5 µM | 59.5 µM
10 | CC1(C)CC(=O)C(/C=N/c2nc(-c3ccc(Br)cc3)cs2)=C(O)C1 | 80.9 µM | 38.3 µM | – | > 100 µM | 73.1 µM | 49.7 µM | – | > 100 µM | > 100 µM
11 | O=C1CSC2(CC(/C=C/C=C/c3ccccc3)=NN2c2cccc(S(=O)(=O)O)c2)N1c1nc2ccccc2s1 (stereo not given) | > 100 µM | > 100 µM | > 100 µM | 67.1 µM | > 100 µM | > 100 µM | > 100 µM | > 100 µM | –
12 | Cc1ccc(-c2cc(-c3ccc(Cl)cc3)nc(/N=C3\C(=O)N(CN4CCCCC4)c4ccc(Cl)cc43)n2)cc1 | 29.7 µM | 71.1 µM | > 100 µM | 63.4 µM | – | > 100 µM | 33.2 µM | 35.4 µM | > 100 µM
13 | CN(C)CCCn1c2ccccc2c2cnccc21 | – | 39.3 µM | > 100 µM | 83.9 µM | 47.9 µM | > 100 µM | > 100 µM | > 100 µM | > 100 µM
